According to US20020137929A1, “1 - (3-heterocyclylphenyl) isothiourea, -isourea, -guanidine and -amidine herbicidal agents” (Intellectual Property Department, BASF Aktiengesellschaft, priority 1998, published 2002):

Experiments:
ABUTH (Velvetleaf) = experiment: Postemergence herbicidal evaluation; type: in vivo, Abutilon theophrasti; conditions: postemergence
How it was run: (§1)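 Rate range approx. 0.0156–0.500 kg/ha. Foliar application at 40 psi to ~2-week seedlings; surfactant 0.5% TWEEN 20 in 50/50 acetone/water. Evaluation 4–5 wk post-treatment by 0–9 visual injury score, means of replicate tests.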

[1] = tested on: ECHORC (Watergrass (Calif.)); experiment: Preemergence weed control under flooded paddy conditions; type: in vivo, Echinochloa oryzoides; conditions: rated 3-4 weeks after treatment
How it was run: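 Silt loam, seeds in top 0.5 cm; flood held 1.5-3 cm; test cpd as acetone/water 50/50 into flood water, ~0.0313-0.500 kg/ha a.i.; greenhouse 3-4 wk; visual 0-9 score vs control.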

[2] = tested on: CHEAL (Lambsquarters, Common); experiment: Preemergence herbicidal evaluation; type: in vivo, Chenopodium album; conditions: rated 4-5 weeks after treatment
How it was run: (§2)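 In this greenhouse assay, monocot and dicot seeds are planted in soil and treated prior to emergence with an aqueous acetone spray (about 0.0156-0.500 kg/ha). Plants are assessed visually against control on a 0-9 scale after 4-5 weeks.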

[3] = tested on: IPOHE (Morningglory, Ivyleaf); experiment: Postemergence herbicidal evaluation; type: in vivo, Ipomoea hederacea; conditions: postemergence
How it was run: as §1

[4] = tested on: TRZAWR (Wheat, Winter, cv Riband); experiment: Postemergence herbicidal evaluation; type: in vivo, Triticum aestivum; conditions: postemergence
How it was run: as §1

SETVI (Foxtail, Green) = experiment: Preemergence herbicidal evaluation; type: in vivo, Setaria viridis; conditions: rated 4-5 weeks after treatment
How it was run: as §2

ORYSAT (Rice, Tebonnet) = experiment: Preemergence herbicidal evaluation; type: in vivo, Oryza sativa, (L.) Tebonnet; conditions: rated 4-5 weeks after treatment
How it was run: as §2

[5] = tested on: TRZAWR (Wheat, Winter, cv Riband); experiment: Preemergence herbicidal evaluation; type: in vivo, Triticum aestivum; conditions: rated 4-5 weeks after treatment
How it was run: as §2

MOOVA (Monochoria) = experiment: Preemergence weed control under flooded paddy conditions; type: in vivo, Monochoria vaginalis; conditions: rated 3-4 weeks after treatment
How it was run: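 Flooded-pot preemergence screen with silt loam and seeds in the upper 0.5 cm. Dose about 0.0313 to 0.500 kg/ha, delivered into flood water; visual 0-9 score after 3 to 4 weeks.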

[6] = tested on: IPOHE (Morningglory, Ivyleaf); experiment: Preemergence herbicidal evaluation; type: in vivo, Ipomoea hederacea; conditions: rated 4-5 weeks after treatment
How it was run: as §2

ECHCG (Barnyardgrass) = experiment: Preemergence herbicidal evaluation; type: in vivo, Echinochloa crus-galli; conditions: rated 4-5 weeks after treatment
How it was run: as §2

## Cn1c(C(F)(F)F)cc(=O)n(-c2cc(N=C3SCC(=O)N3Cc3ccco3)c(Cl)cc2F)c1=O [Compound 122, 3-{4-Chloro-2-fluoro-5-[(3-furfuryl-4-oxo-2-thiazolidinylidene)amino]phenyl}-1-methyl-6-(trifluoromethyl)-2,4(1H,3H)-pyrimidinedione]
ABUTH (Velvetleaf); rate 0.0156 kg/ha
  herbicidal rating ABUTH: 9.0
ABUTH (Velvetleaf); rate 0.0313 kg/ha
  herbicidal rating ABUTH: 9.0
ABUTH (Velvetleaf); rate 0.0625 kg/ha
  herbicidal rating ABUTH: 9.0
ABUTH (Velvetleaf); rate 0.1250 kg/ha
  herbicidal rating ABUTH: 9.0
[1]; 0.0313 kg/ha
  herbicidal effect rating, ECHORC: 6.0
[1]; 0.0625 kg/ha
  herbicidal effect rating, ECHORC: 7.0
[1]; 0.1250 kg/ha
  herbicidal effect rating, ECHORC: 7.0
[1]; 0.2500 kg/ha
  herbicidal effect rating, ECHORC: 7.0
[2]; rate 0.0156 kg/ha
  Preemergence herbicidal rating CHEAL: 9.0
[2]; rate 0.0313 kg/ha
  Preemergence herbicidal rating CHEAL: 9.0
[2]; rate 0.0625 kg/ha
  Preemergence herbicidal rating CHEAL: 7.0
[2]; rate 0.1250 kg/ha
  Preemergence herbicidal rating CHEAL: 9.0
[2]; rate 0.2500 kg/ha
  Preemergence herbicidal rating CHEAL: 9.0
[2]; rate 0.5000 kg/ha
  Preemergence herbicidal rating CHEAL: 9.0
[3]; rate 0.0156 kg/ha
  herbicidal rating IPOHE: 9.0
[3]; rate 0.0313 kg/ha
  herbicidal rating IPOHE: 9.0
[3]; rate 0.0625 kg/ha
  herbicidal rating IPOHE: 9.0
[3]; rate 0.1250 kg/ha
  herbicidal rating IPOHE: 9.0
[4]; rate 0.0156 kg/ha
  herbicidal rating TRZAWR: 3.0
[4]; rate 0.0313 kg/ha
  herbicidal rating TRZAWR: 3.5
[4]; rate 0.0625 kg/ha
  herbicidal rating TRZAWR: 4.5
[4]; rate 0.1250 kg/ha
  herbicidal rating TRZAWR: 5.0
SETVI (Foxtail, Green); rate 0.0156 kg/ha
  Preemergence herbicidal rating SETVI: 0.0
SETVI (Foxtail, Green); rate 0.0313 kg/ha
  Preemergence herbicidal rating SETVI: 0.0
SETVI (Foxtail, Green); rate 0.0625 kg/ha
  Preemergence herbicidal rating SETVI: 0.0
SETVI (Foxtail, Green); rate 0.1250 kg/ha
  Preemergence herbicidal rating SETVI: 1.0
SETVI (Foxtail, Green); rate 0.2500 kg/ha
  Preemergence herbicidal rating SETVI: 1.0
SETVI (Foxtail, Green); rate 0.5000 kg/ha
  Preemergence herbicidal rating SETVI: 9.0
ORYSAT (Rice, Tebonnet); rate 0.0156 kg/ha
  Preemergence herbicidal rating ORYSAT: 0.0
ORYSAT (Rice, Tebonnet); rate 0.0313 kg/ha
  Preemergence herbicidal rating ORYSAT: 0.0
ORYSAT (Rice, Tebonnet); rate 0.0625 kg/ha
  Preemergence herbicidal rating ORYSAT: 0.0
ORYSAT (Rice, Tebonnet); rate 0.1250 kg/ha
  Preemergence herbicidal rating ORYSAT: 0.0
ORYSAT (Rice, Tebonnet); rate 0.2500 kg/ha
  Preemergence herbicidal rating ORYSAT: 0.0
ORYSAT (Rice, Tebonnet); rate 0.5000 kg/ha
  Preemergence herbicidal rating ORYSAT: 1.0
[5]; rate 0.0156 kg/ha
  Preemergence herbicidal rating TRZAWR: 0.0
[5]; rate 0.0313 kg/ha
  Preemergence herbicidal rating TRZAWR: 0.0
[5]; rate 0.0625 kg/ha
  Preemergence herbicidal rating TRZAWR: 0.0
[5]; rate 0.1250 kg/ha
  Preemergence herbicidal rating TRZAWR: 0.0
[5]; rate 0.2500 kg/ha
  Preemergence herbicidal rating TRZAWR: 0.0
[5]; rate 0.5000 kg/ha
  Preemergence herbicidal rating TRZAWR: 1.0
MOOVA (Monochoria); 0.0313 kg/ha
  herbicidal effect rating, MOOVA: 8.0
MOOVA (Monochoria); 0.0625 kg/ha
  herbicidal effect rating, MOOVA: 9.0
MOOVA (Monochoria); 0.1250 kg/ha
  herbicidal effect rating, MOOVA: 9.0
MOOVA (Monochoria); 0.2500 kg/ha
  herbicidal effect rating, MOOVA: 9.0
[6]; rate 0.0156 kg/ha
  Preemergence herbicidal rating IPOHE: 0.0
[6]; rate 0.0313 kg/ha
  Preemergence herbicidal rating IPOHE: 0.0
[6]; rate 0.0625 kg/ha
  Preemergence herbicidal rating IPOHE: 0.0
[6]; rate 0.1250 kg/ha
  Preemergence herbicidal rating IPOHE: 2.0
[6]; rate 0.2500 kg/ha
  Preemergence herbicidal rating IPOHE: 1.0
[6]; rate 0.5000 kg/ha
  Preemergence herbicidal rating IPOHE: 1.0
ECHCG (Barnyardgrass); rate 0.0156 kg/ha
  Preemergence herbicidal rating ECHCG: 0.0
ECHCG (Barnyardgrass); rate 0.0313 kg/ha
  Preemergence herbicidal rating ECHCG: 0.0
ECHCG (Barnyardgrass); rate 0.0625 kg/ha
  Preemergence herbicidal rating ECHCG: 0.0
ECHCG (Barnyardgrass); rate 0.1250 kg/ha
  Preemergence herbicidal rating ECHCG: 0.0
ECHCG (Barnyardgrass); rate 0.2500 kg/ha
  Preemergence herbicidal rating ECHCG: 0.0
ECHCG (Barnyardgrass); rate 0.5000 kg/ha
  Preemergence herbicidal rating ECHCG: 1.0
